How the values were obtained:
[1] = system: causative organism of wheat leaf rust; experiment: Control of wheat leaf rust by aqueous suspension of the compound; type: in vivo; conditions: 300 parts per million by weight, sole compound
[2] = system: causative organism of downey mildew; experiment: Control of downey mildew on host plants (root drench and foliar treatment); type: in vivo; conditions: 500 parts per million by weight solution; root system application and foliar treatment of host plants
Description: Solutions containing 500 parts per million by weight of the compound were formulated and applied to the host plants through two different modes of administration. First, the solution was applied to the root system of the host plants by drenching the chemicals into the pots or by placing the pots into larger cups containing the solution of the compound. Second, a foliar chemical treatment was applied to the host plants. The plants were then exposed to the pathogen and placed under conditions suitable for infection and development of the disease.

SMILES | kill of the causative organism of wheat leaf rust [1] | control of the causative organism of downey mildew [2] [%]
CCC(=O)OCCNC(=O)Oc1ccc2oc(=O)sc2c1 [Example 1, 5-[2-(Propionyloxy)ethylcarbamoyloxy]-1,3-benzoxathiol-2-one] | substantially complete kill | 
CCc1cccc(NC(=O)Oc2ccc3oc(=O)sc3c2)c1 [Example 4, 5-[(3-Ethylphenyl)carbamoyloxy]-1,3-benzoxathiol-2-one] |  | 90
